What was measured:
[1] = tested on: Alzheimer's disease (AD) in patients over the age of 60; assay: Health care database study at three hospitals: frequency of AD by medication (ICD-9-CM codes); assay type: in vivo, human; conditions: for Prevalence Of AD/1000 Hines / Prevalence Of AD/1000 Loyola / Prevalence Of AD/1000 Phoenix / Prevalence Of AD/1000 Combined: patients 60 years or over; for Prevalence Of AD/1000 Hines: Hines Veterans Authority Medical Center; for Prevalence Of AD/1000 Loyola: Loyola Medical Center; for Prevalence Of AD/1000 Phoenix: Phoenix Veterans Authority Medical Center; for Prevalence Of AD/1000 Combined: data from the three sites combined; for effect on prevalence / risk of AD (in words): patients over the age of 60, compared with total patient population
From the text: To perform the study, relational databases at three different hospitals (Loyola Medical Center (“Loyola”), Hines Veterans Authority Medical Center (“Hines”), and Phoenix Veterans Authority Medical Center (“Phoenix”)) were searched to obtain aggregate data about the frequency of AD. Each database included clinical information that facilitated identification of potential relationships between specific items. […] Patient privacy was protected by using only aggregate patient data.
Each database was sorted to exclude any subjects under the age of 60 and any entries that contained patients' names but no medical information pertinent to the study. This yielded a total patient sample size for the three databases of 63,296 patients.
The frequency of AD for each medication was then determined using ICD-9-CM codes.
Alzheimer's disease was identified under the ICD-9-CM code of 331.0, but because other codes also apply to AD, the codes 331.2, 290.0, 290.10-13, 290.20 and 290.3 were also included as AD cases based on interviews with the physicians at each center who diagnosed or oversaw the diagnosis of patients with AD and on their coding practices for AD. The diagnosis of AD was made according to the criteria of the National Institute of Neurological and Communicative Disorders and Stroke (NINCDS) and the Alzheimer's Disease and Related Disorders Association (ADRDA) Work Group (McKhann et al., “Clinical Diagnosis of Alzheimer's Disease: Report of the NINCDS-ADRDA Work Group under the Auspices of Department of Health and Human Services Task Force on Alzheimer's Disease,” Neurology, 34:939-944 (1984).) Each AD patient had received either a CT scan or MRI to exclude other diagnoses, and had been screened for other metabolic, toxic, or affective disorders that may produce dementia.
Statistics were determined by comparisons of proportions using chi square analyses. All statistics listed P values and 95% confidence intervals.

Alzheimer's disease (AD) = conditions: comparison figures, no source given; cited from earlier work

CC(C)NCC(O)COc1ccc(CC(N)=O)cc1 (stereo not shown) [Atenolol, atenolol]
Prevalence Of AD/1000 Hines [1]: 7.1 /1000
Prevalence Of AD/1000 Loyola [1]: 19.2 /1000
Prevalence Of AD/1000 Phoenix [1]: 19.0 /1000
Prevalence Of AD/1000 Combined [1]: 14.8 /1000
effect on prevalence / risk of AD (in words) [1]: higher than that of the total patient cohort

C[C@H](CS)C(=O)N1CCC[C@H]1C(=O)O [Captopril, captopril]
Prevalence Of AD/1000 Hines [1]: 8.4 /1000
Prevalence Of AD/1000 Loyola [1]: 13.6 /1000
Prevalence Of AD/1000 Phoenix [1]: 10.6 /1000
Prevalence Of AD/1000 Combined [1]: 10.6 /1000
effect on prevalence / risk of AD (in words) [1]: did not show any significant reduction

NS(=O)(=O)c1cc(C(=O)O)c(NCc2ccco2)cc1Cl [Furosemide, furosemide]
Prevalence Of AD/1000 Hines [1]: 9.0 /1000
Prevalence Of AD/1000 Loyola [1]: 16.7 /1000
Prevalence Of AD/1000 Phoenix [1]: 14.1 /1000
Prevalence Of AD/1000 Combined [1]: 8.9 /1000
effect on prevalence / risk of AD (in words) [1]: did not show any significant reduction

COCCc1ccc(OCC(O)CNC(C)C)cc1 (stereo not shown) [Metoprolol, metoprolol]
Prevalence Of AD/1000 Hines [1]: 4.4 /1000
Prevalence Of AD/1000 Loyola [1]: 15.3 /1000
Prevalence Of AD/1000 Phoenix [1]: 12.4 /1000
Prevalence Of AD/1000 Combined [1]: 12.1 /1000
effect on prevalence / risk of AD (in words) [1]: higher than that of the total patient cohort

CC[C@H](C)C(=O)O[C@H]1C[C@H](O)C=C2C=C[C@H](C)[C@H](CC[C@@H](O)C[C@@H](O)CC(=O)O)[C@H]21 [Pravastatin, 1-naphthalene-hepatnoic acid, 1,2,6,7,8,8a-hexahydro-β,δ,6-trihydroxy-2-methyl-8-(2-methyl-1-oxobutoxy)]
Prevalence Of AD/1000 Hines [1]: 1.1 /1000
Prevalence Of AD/1000 Loyola [1]: 0 /1000
Prevalence Of AD/1000 Phoenix [1]: 8.3 /1000
Prevalence Of AD/1000 Combined [1]: 4.3 /1000

CC(C)NCC(O)COc1cccc2ccccc12 (stereo not shown) [Propanolol, propanolol]
Prevalence Of AD/1000 Hines [1]: 3.9 /1000
Prevalence Of AD/1000 Loyola [1]: 42.4 /1000
Prevalence Of AD/1000 Phoenix [1]: 20.7 /1000
Prevalence Of AD/1000 Combined [1]: 17.5 /1000
effect on prevalence / risk of AD (in words) [1]: higher than that of the total patient cohort

CCC(C)(C)C(=O)O[C@H]1C[C@@H](C)C=C2C=C[C@H](C)[C@H](CC[C@@H]3C[C@@H](O)CC(=O)O3)[C@H]21 [Simvastatin, simvastatin]
Prevalence Of AD/1000 Loyola [1]: 8.1 /1000
Prevalence Of AD/1000 Phoenix [1]: 11.2 /1000
Prevalence Of AD/1000 Combined [1]: 11.2 /1000

Cc1c(C)c2c(c(C)c1O)CC[C@@](C)(CCC[C@H](C)CCC[C@H](C)CCCC(C)C)O2 [alpha-tocopherol]
degree of reduction (of AD risk), other putative AD therapeutics (Alzheimer's disease (AD)): 52%

estrogen
degree of reduction (of AD risk), other putative AD therapeutics (Alzheimer's disease (AD)): 25-31%

— patent US6472421B1, “Methods for treating, preventing, and reducing the risk of the onset of alzheimer's disease using an HMG CoA reductase inhibitor” (Nymox Corporation, priority 1998, dated 2002)
